This test relates to Helicobacter pylori. Description: Antibacterial activity against Helicobacter pylori after 48 hrs. The test is classed as functional.

Molecules are shown by their SMILES. In brackets after ≈: the same amount, converted by molar mass.

Turning to `C/C(=C/CC[C@H](C)C1CC[C@]2(C)C3=C(CC[C@@]12C)[C@@]1(C)CC[C@H](O)C(C)(C)C1CC3)C(=O)O` (stereo partly specified), the MBC (usually the lowest tested concentration that kills the bacteria rather than only halting them) amounted to 202 µg/mL (≈ 442 µM).
With `C/C(=C/CC[C@H](C)C1CC[C@]2(C)C3=CCC4C(C)(C)C(=O)CC[C@]4(C)C3CC[C@@]12C)C(=O)O` (stereo partly specified) the figure was 350 µg/mL (≈ 770 µM); with `C/C(=C/CC[C@H](C)C1CC[C@]2(C)C3=CCC4C(C)(C)[C@@H](O)CC[C@]4(C)C3CC[C@@]12C)C(=O)O` (stereo partly specified), 220 µg/mL (≈ 482 µM).
With `C/C(=C/CC[C@H](C)C1CC[C@]2(C)C3=C(CC[C@@]12C)[C@@]1(C)CCC(=O)C(C)(C)C1CC3)C(=O)O` (stereo partly specified) the figure was 333 µg/mL (≈ 732 µM); with `CC1(C)CC[C@]2(C(=O)O)CC[C@]3(C)C(=CC[C@@H]4[C@@]5(C)CCC(=O)C(C)(C)[C@@H]5CC[C@]43C)[C@@H]2C1` [OLEANONIC ACID], 292 µg/mL (≈ 642 µM); with `CC1(C)C=C2[C@H]3CC[C@@H]4[C@@]5(C)CCC(=O)C(C)(C)[C@@H]5CC[C@@]4(C)[C@]3(C)CC[C@@]2(C(=O)O)CC1` [MORONIC ACID], 310 µg/mL (≈ 682 µM).

The values are drawn from ChEMBL document CHEMBL1142187, “In vitro and in vivo activities of Chios mastic gum extracts and constituents against Helicobacter pylori” (2007).
